From US5198433A, “Lactamimides as calcium antagonists” (Merrell Dow Pharmaceuticals Inc., priority 1992, dated 1993)
Each block holds one molecule with its values, some of them ahead of it.

Experiments:
[1] = molecular target: [^3 H]d-cis-diltiazem binding to rat whole brain membranes (calcium ion-channel protein); assay: [^3 H]d-cis-Diltiazem binding assay (displacement from rat whole brain membranes); parameters: species or system rat (male Sprague-Dawley); settings: for pKi: Table 1, displacement of 3H diltiazem, rat brain membranes, n = 3, Cheng & Prusoff; for IC50: ligand […]
Procedure: The whole brain from male Sprague-Dawley rats (200-300 g) was dissected and homogenized in cold 50 mM Tris-HCl buffer (pH 7.4) for 2 x 30 second periods by Polytron (Brinkmann, setting No. 5). The homogenate was washed 2 times (48,000 ×g for 10 minutes, 4° C.) with intermittent resuspension of the pellet in fresh buffer. The final pellet was resuspended to an original tissue concentration of 100 mg/ml in Tris-HCl buffer. […] The reaction was terminated by rapid filtration under a vacuum through 0.05% polyethylenimine-pretreated Whatman GF/B glass fiber filters. Filters were immediately washed 2 times with 4 ml of cold Tris-HCl buffer. Pretreatment of the filters with 0.05% polyethylenimine served to eliminate [^3 H]d-cis-diltiazem binding to the filter. The filters were dried and the radioactivity in the filters was extracted overnight in scintillation fluid.

[2] = molecular target: T1, K^+ -depolarized guinea pig ileum or taenia (Cavia porcellus); assay: Antagonism of Ca^++ -induced contractions of K^+ -depolarized guinea pig taenia or ileum; format: cell-based; settings: for pA2: Table 1, guinea pig ileum or taenia, K^+ -depolarized, Ca^++ -induced contraction, Arunlakshana & Schild; for mean pA2 value (95% confidence interval), Schild plot / mean slope (±S.D.) of Schild plot: FIG. 6, 40 mM K^+ -depolarized guinea pig ileum
T1 construct: pieces of ileum, 2 cm in length, from male guinea pigs (200-400 g) were set up in isolated organ baths; from tissue; host or cells: strips of taenia from the caecum or pieces of ileum of male guinea pigs
Procedure: Strips of taenia from the caecum or pieces of ileum, 2 cm in length, from male guinea pigs (200-400 g) were set up in isolated organ baths in Ca^++ -free K^+ Tyrode's solution (mM NaCl 137, KCl 40, NaH2 PO4 0.4, NaHCO3 11.9, glucose 5.5) and gassed with 95% O2, 5% CO2 at 37° C. Contractions were measured with isotonic transducers with a 1 g load. Cumulative dose-response curves were obtained. Tissues were then washed and incubated with the compounds for 20-25 minutes and then Ca^++ concentration response curves re-established. […] Dose ratios were determined graphically at ED50 values from the Ca^++ dose-response curve and Schild plots were constructed to determine pA2 value using inverse regression line analysis. Alternatively, when only one concentration of an antagonist was used, pA2 values were calculated according to the method of J. M. Van Rossum, Arch. Int. Pharmacodyn Ther. 143: 299-330 (1963).

[3] = molecular target: T2, [^3 H]nitrendipine binding to rat heart membranes (calcium ion-channel protein) (Rattus norvegicus, UniProt P22002); assay: [^3 H]Nitrendipine binding assay (enhancement of binding to rat heart membranes); parameters: species or system rat (male Sprague-Dawley); settings: ligand 0.1 nM, mean ± SEM; for activity at 1 µM: 10^-6 M; for activity at 0.1 µM: 10^-7 M
T2 construct: Membranes were prepared from the hearts of male Sprague-Dawley rats; from tissue; host or cells: heart membranes of male Sprague-Dawley rats
Procedure: Membranes were prepared from the hearts of male Sprague-Dawley rats and [^3 H]nitrendipine binding was conducted as described in detail by H. R. Lee, et al., J. Pharmacol Exp. Ther. 233:611-616, (1985), as modified by F. J. Ehlert, et al., Biochem. Biophys. Rec. Common. 104:937-943, (1982). The ability of compounds tested at 10^-6 and 10^-7 M to enhance [^3 H]nitredepine binding was taken as indicative of diltiazem-like calcium antagonistic properties.
Values are the mean ± SEM of single experiments run in triplicate at
the concentrations of drugs indicated. Ligand concentration was 0.1 nM an
control specific binding was 49.6 ± 1.7 fmol/mg protein.

[4] = system: calcium ion-channel protein; settings: [^3 H]nitrendipine as the ligand; cited from earlier work

T2 sequence (P22002 whole entry, other chains not shown): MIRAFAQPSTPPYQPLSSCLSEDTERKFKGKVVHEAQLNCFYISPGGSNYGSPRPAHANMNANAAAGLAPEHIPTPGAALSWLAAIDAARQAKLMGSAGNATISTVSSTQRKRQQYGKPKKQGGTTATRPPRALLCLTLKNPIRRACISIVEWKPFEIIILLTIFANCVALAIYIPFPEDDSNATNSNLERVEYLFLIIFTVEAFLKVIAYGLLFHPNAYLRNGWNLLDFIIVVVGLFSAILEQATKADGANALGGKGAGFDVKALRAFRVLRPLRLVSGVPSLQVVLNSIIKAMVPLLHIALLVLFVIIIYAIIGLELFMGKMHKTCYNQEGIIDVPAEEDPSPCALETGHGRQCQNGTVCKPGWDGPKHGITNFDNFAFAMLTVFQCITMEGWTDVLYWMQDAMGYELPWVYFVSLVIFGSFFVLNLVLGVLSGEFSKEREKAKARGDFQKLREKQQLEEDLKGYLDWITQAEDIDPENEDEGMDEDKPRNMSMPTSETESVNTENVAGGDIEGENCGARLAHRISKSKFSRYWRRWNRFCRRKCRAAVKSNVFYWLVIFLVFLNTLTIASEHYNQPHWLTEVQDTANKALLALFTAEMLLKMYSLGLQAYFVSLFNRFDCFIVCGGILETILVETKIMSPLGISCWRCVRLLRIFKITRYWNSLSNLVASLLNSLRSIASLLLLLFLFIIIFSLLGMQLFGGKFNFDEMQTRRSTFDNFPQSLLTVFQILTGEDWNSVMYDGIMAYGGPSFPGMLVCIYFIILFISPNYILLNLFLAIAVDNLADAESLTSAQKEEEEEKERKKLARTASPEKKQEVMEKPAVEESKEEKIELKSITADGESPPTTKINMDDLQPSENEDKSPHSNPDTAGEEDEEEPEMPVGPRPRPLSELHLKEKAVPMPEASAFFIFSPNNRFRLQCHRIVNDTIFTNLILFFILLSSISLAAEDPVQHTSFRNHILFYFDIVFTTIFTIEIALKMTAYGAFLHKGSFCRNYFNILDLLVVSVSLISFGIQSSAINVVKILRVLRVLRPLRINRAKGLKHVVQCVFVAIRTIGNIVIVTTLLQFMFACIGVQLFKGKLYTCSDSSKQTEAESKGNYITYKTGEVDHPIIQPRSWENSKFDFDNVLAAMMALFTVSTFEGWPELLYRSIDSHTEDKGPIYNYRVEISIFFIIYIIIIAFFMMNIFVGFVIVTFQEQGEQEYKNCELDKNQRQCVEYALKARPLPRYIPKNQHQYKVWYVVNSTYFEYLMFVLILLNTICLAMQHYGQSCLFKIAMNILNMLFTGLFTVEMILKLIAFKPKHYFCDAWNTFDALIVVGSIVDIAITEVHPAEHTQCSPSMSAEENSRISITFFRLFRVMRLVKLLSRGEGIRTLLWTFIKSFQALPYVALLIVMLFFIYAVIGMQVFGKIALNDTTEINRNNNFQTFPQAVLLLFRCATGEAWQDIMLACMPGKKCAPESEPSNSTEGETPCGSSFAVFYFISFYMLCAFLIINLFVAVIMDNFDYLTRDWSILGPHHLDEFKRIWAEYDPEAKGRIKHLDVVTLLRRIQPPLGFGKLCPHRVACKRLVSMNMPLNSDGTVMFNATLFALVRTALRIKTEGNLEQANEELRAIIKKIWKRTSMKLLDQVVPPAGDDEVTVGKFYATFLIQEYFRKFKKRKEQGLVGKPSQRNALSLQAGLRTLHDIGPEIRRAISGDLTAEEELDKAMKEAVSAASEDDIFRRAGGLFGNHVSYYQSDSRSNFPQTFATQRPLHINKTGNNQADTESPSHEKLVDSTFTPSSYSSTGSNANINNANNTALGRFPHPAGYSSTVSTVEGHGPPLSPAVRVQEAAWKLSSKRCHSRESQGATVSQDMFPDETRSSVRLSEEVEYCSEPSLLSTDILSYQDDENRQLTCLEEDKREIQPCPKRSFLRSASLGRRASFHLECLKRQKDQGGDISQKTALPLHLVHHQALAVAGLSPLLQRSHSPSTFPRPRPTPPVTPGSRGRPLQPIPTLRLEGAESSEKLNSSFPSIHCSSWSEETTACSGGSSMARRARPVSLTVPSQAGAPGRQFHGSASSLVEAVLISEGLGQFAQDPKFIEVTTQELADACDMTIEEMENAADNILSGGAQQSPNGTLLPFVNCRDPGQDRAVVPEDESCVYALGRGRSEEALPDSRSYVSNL
T2 sequence (P54290 25-945 partner limits assumed, other chains not shown): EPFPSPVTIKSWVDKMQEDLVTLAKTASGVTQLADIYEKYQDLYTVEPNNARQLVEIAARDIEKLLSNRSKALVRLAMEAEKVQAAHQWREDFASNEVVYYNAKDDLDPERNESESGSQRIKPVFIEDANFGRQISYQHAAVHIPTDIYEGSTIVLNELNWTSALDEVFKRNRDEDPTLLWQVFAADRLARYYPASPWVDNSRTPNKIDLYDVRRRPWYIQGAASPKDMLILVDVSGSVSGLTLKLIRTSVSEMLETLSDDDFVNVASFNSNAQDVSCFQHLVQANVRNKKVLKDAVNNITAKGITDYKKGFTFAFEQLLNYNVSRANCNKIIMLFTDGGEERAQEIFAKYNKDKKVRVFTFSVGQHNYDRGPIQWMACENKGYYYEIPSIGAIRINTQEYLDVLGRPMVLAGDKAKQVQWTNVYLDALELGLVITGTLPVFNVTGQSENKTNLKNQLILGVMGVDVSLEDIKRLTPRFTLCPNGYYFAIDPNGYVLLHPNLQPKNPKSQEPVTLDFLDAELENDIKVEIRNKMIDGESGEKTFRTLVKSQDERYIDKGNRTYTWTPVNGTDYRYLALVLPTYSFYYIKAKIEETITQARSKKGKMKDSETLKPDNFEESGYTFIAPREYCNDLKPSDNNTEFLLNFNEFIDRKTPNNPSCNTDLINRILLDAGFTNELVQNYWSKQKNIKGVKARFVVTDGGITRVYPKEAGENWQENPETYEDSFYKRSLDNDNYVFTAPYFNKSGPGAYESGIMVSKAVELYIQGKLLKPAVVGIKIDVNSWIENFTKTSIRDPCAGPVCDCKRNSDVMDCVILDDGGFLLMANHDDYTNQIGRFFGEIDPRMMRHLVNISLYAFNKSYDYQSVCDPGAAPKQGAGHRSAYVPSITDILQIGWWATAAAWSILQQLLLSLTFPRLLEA
T2 sequence (P54290 946-1091 partner limits assumed, other chains not shown): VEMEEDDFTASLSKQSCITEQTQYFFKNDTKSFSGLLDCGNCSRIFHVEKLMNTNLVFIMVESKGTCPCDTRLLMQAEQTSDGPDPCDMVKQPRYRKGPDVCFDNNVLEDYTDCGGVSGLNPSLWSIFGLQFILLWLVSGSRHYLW

pKi ([1]; 25° C.): 5.26
pA2 [2]: 4.84
SMILES: c1ccc([C@H]2CCC[C@H]2N=C2CCCCCCCN2)cc1 (relative stereo) [Test Compound 14, octahydro-2-[(cis-2-phenylcyclopentyl)imino]azonine]

pKi ([1]; 25° C.): 4.16
SMILES: c1ccc([C@H]2CCC[C@H]2N=C2CCCCCN2)cc1 (relative stereo) [Test Compound 15, hexahydro-2-[(cis-2-phenylcyclopentyl)imino]azepine]

pKi ([1]; 25° C.): 4.96
SMILES: c1ccc([C@@H]2CCC[C@@H]2N=C2CCCN2)cc1 (relative stereo) [Test Compound 16]

pA2 [2]: 5.18
SMILES: CC(N=C1CCCCCN1)c1cccc2ccccc12 (single isomer, unassigned; (-)) [Test Compound 26, (-)-hexahydro-N-[1-(1-naphthalenyl)ethyl]2H-azepin-2-imine]

pKi ([1]; 25° C.): 6.49
activity at 1 µM ([3]; 25° C.): 123 ± 6%
activity at 0.1 µM ([3]; 25° C.): 119 ± 6%
activity at 1 µM ([3]; 37° C.): 224 ± 14%
activity at 0.1 µM ([3]; 37° C.): 252 ± 13%
mean pA2 value (95% confidence interval), Schild plot [2]: 7.27 (6.95-8.12)
mean slope (±S.D.) of Schild plot [2]: 0.94 (0.21)
SMILES: CCCC(CN=C1CCCCCCCCCCCN1)(c1ccccc1)c1ccccc1 [Test Compound 1, N-(2,2-diphenylpentyl)azacyclotridecan-2-imine]

activity at 1 µM ([3]; 37° C.): 122 ± 3%
activity at 0.1 µM ([3]; 37° C.): 111 ± 9%
pA2 ([2]; listed as 5): 6.60
SMILES: CCCC(CN=C1CCCCCCN1)(c1ccccc1)c1ccccc1 [Test Compound 5, 2-[(2,2-diphenylpentyl)imino]octahydroazocine]

pA2 ([2]; listed as 6): 6.64
SMILES: CCCC(CN=C1CCCCCN1)(c1ccccc1)c1ccccc1 [Test Compound 6, hexahydro-2-[(2,2-diphenylpentyl)imino]azepine]

pKi ([1]; 25° C.): 6.72
pA2 [2]: 6.63
SMILES: c1ccc(C(N=C2CCCCCCN2)C23CC4CC(CC(C4)C2)C3)cc1 (stereo not drawn) [Test Compound 8, 2-[[α-(1-adamantanyl)benzyl]imino]octahydroazocine]

pKi ([1]; 25° C.): 6.08
pA2 [2]: 6.33
SMILES: Clc1ccc(C(N=C2CCCCCN2)c2ccc(Cl)cc2)cc1 [Test Compound 10, 2-[(p-chloro-α-[p-chlorophenyl]benzyl)imino]hexahydroazepine]

pKi ([1]; 25° C.): 4.70
pA2 [2]: 5.47
SMILES: C1CCNC(=NC2C3CC4CC(C3)CC2C4)CC1 (stereo not shown) [Test Compound 13, 2-(2-adamantanylimino)hexahydroazepine]

activity at 1 µM ([3]; 25° C.): 83 ± 8%
activity at 0.1 µM ([3]; 25° C.): 96 ± 5%
activity at 1 µM ([3]; 37° C.): 262 ± 10%
activity at 0.1 µM ([3]; 37° C.): 218 ± 4%
mean slope (±S.D.) of Schild plot [2]: 1.00 (0.15)
SMILES: COc1ccc([C@@H]2Sc3ccccc3N(CCN(C)C)C(=O)[C@@H]2OC(C)=O)cc1 [Test Compound 17, (1)-cis-5-2-(dimethylamino)etnyl]2,3-dihydro-3-hydroxy-2-(p-methoxyphenyl)-1,5-benzothiazepin-4(5H)-one acetate, reference compound]
effect on [^3 H]nitrendipine binding [4]: enhances binding

The remaining lines, values behind:

SMILES: C1CCNC(=N[C@@H]2CCC[C@@H]2C2CCCCC2)CC1 (relative stereo) [Test Compound 12, 2-[(cis-2-cyclohexylcyclopentyl)imino]hexahydroazepine]
pKi ([1]; 25° C.): 5.54
pA2 [2]: 5.54

SMILES: CC(N=C1CCCCCN1)c1cccc2ccccc12 (single isomer, unassigned; (+)) [Test Compound 25, (+)-hexahydro-N-[1-(1-naphthalenyl)ethyl]2H-azepin-2-imine]
pA2 [2]: 5.47

SMILES: c1ccc(-c2ccccc2N=C2CCCCCCCCCCCN2)cc1 [Test Compound 2, 2-(o-biphenylylimino)azacyclotridecane]
activity at 1 µM ([3]; 25° C.): 123 ± 10%
activity at 0.1 µM ([3]; 25° C.): 117 ± 7%
activity at 1 µM ([3]; 37° C.): 152 ± 15%
activity at 0.1 µM ([3]; 37° C.): 152 ± 9%
mean pA2 value (95% confidence interval), Schild plot [2]: 6.59 (6.33-7.17)

SMILES: C1CCCCCNC(=NC2CC3CCC2C3)CCCCC1 (stereo not shown) [Test Compound 4, 2-(2-norbornylimino)azacyclotridecane]
pKi ([1]; 25° C.): 5.92
activity at 1 µM ([3]; 25° C.): 106 ± 4%
activity at 0.1 µM ([3]; 25° C.): 105 ± 4%
activity at 1 µM ([3]; 37° C.): 116 ± 8%
activity at 0.1 µM ([3]; 37° C.): 108 ± 7%
pA2 [2]: 6.07

SMILES: CCCC(CN=C1CCCCN1)(c1ccccc1)c1ccccc1 [Test Compound 7, 2-[(2,2-diphenylpentyl)imino]piperidine]
pA2 ([2]; listed as 7): 6.15

SMILES: CCCCOc1ccc(C(N=C2CCCCCN2)c2ccccc2)cc1 (stereo not drawn) [Test Compound 9, 2-[(p-butoxy-α-phenylbenzyl)imino]hexahydroazepine]
pKi ([1]; 25° C.): 6.17
pA2 [2]: 5.86

SMILES: FC(F)(F)c1cccc(C(N=C2CCCCCN2)c2ccccc2)c1 (stereo not shown) [Test Compound 11, hexahydro-N-[phenyl[3-(trifluoromethyl)phenyl]methyl]-2H-azepin-2-imine]
pKi ([1]; 25° C.): 5.92
pA2 [2]: 5.60

SMILES: COc1cc(CN=C2NCCC2=Cc2ccc(C)cc2)ccc1O [Test Compound 19, 2-methoxy-4-[[[3-[(4-methylphenyl)methylene]-2-pyrrolidinyliden]amino]methyl]phenol]
IC50 ([1]; 25° C.): 1260 ± 90 nM
IC50 ([1]; 37° C.): 1900 ± 230 nM

SMILES: c1ccc(C(CCN=C2CCCCCN2)c2ccccc2)cc1 [Test Compound 20, hexahydro-2-[3,3-diphenylpropylimino)azepine]
pA2 [2]: 6.19

SMILES: c1ccc(C(CN=C2CCCCCN2)c2ccccc2)cc1 [Test Compound 21, hexahydro-2-(2,2-diphenylethylimino)azepine]
pA2 [2]: 6.14

SMILES: CCCC(CN=C1CCCCCN1)(c1ccccc1)c1ccccc1 [Test Compound 22, hexahydro-2-[(2,2-diphenylpentyl)imino]azepine]
pA2 ([2]; listed as 22): 6.31

SMILES: CCCC(CN=C1CCCCN1)(c1ccccc1)c1ccccc1 [Test Compound 23, 2-[(2,2-diphenylpentyl)imino]piperidine]
pA2 ([2]; listed as 23): 6.04

SMILES: CCCC(CN=C1CCCCCCN1)(c1ccccc1)c1ccccc1 [Test Compound 24, 2-[(2,2-diphenylpentyl)imino]octahydroazocine]
pA2 ([2]; listed as 24): 6.63

SMILES: COc1ccc(CCN(C)CCCC(C#N)(c2ccc(OC)c(OC)c2)C(C)C)cc1OC (stereo not shown) [verapamil]
effect on [^3 H]nitrendipine binding [4]: displaces [^3 H]nitrendipine in a non-competitive manner
